Measured values published in patent publication US11253540B2, “Composition including glycosaminoglycan derivative and chemokine receptor activity regulator” (Seikagaku Corporation, priority 2015, dated 2022).

How the values were obtained:
laser-induced CNV [1] = test: Laser-induced CNV models of rat: CNV area, flat mounts prepared 4 days after preparation of models; assay type: in vivo; parameters: key to Test results, CNV area vs. CS, t-test: N.S.: Not Significant (vs. CS), t-test; settings: Test Example 19; for CNV area, mean: 5 μL/eye intravitreal once, flat mounts after 4 days, Compound 3 10 mg/ml in PBS, CS (about 40,000) 10 mg/mL in PBS
Description: BN/CrlCrlj rats (male, CHARLES RIVER LABORATORIES JAPAN, INC.) were used for the preparation of animal models. Under general anesthesia by intraperitoneal administration of an anesthetic mixture (saline:Somnopentyl=9:1) (about 2 mL/body), Mydrin-P ophthalmic solution was topically instilled to cause mydriasis in both eyes. The retina around the optic disk was irradiated with a laser beam to induce CNV. Used for the laser beam irradiation were SCOPISOL solution for eye, Fundus 5.4 mm Laser Lens, a laser photocoagulation device and a slit lamp illumination system. Immediately after the laser beam irradiation, 5 μL/eye of the test substance was administered once into the vitreous bodies of both eyes. Immediately after the administration, one drop of an antimicrobial drug (VEGAMOX Ophthalmic Solution 0.5%) was instilled.
After 10 days from the preparation, the models were euthanized with CO2. The eyeballs were extracted and immersed in 10% neutral buffered solution of formalin (room temperature, about 60 minutes). Eye cups were prepared, washed with PBS, dehydrated with methanol and immersed in PBS containing 1% bovine serum albumin and 0.5% Triton X-100 (room temperature, about 60 minutes). The retina was removed, and 60 μL of 0.5% fluorescein Griffonia simplicifolia lectin I, FITC-conjugate was added to the eye cups, and the eye cups were allowed to stand (under refrigeration, overnight). By this treatment, vascular endothelial cells of CNV were fluorescently stained with FITC-lectin. Eight slits were made radially in each of the eye cups to thereby obtain flat mounts. These flat mounts were washed twice with PBS containing 0.1% Triton X-100 and embedded on a glass slide with about 120 μL of Prolong Gold Antifade Reagent.
A fluorescence image of CNV in the flat mount embedded on a glass slide was taken with a fluorescent microscope. The area of CNV was measured using an image processing software (Image pro exp).
Laser-induced CNV models of rat were prepared, and neovascularization inhibitory effect was examined with respect to intravitreal administration of Compound 3.
Substantially the same procedure as in ? Method ? for Test Example 1 was repeated, except that flat mounts were prepared 4 days after the preparation of models, instead of 10 days after the preparation of models in Test Example 1.
The areas of CNV in each group were analyzed by a test (t-test) for unpaired two groups. The significance level was 5% on both sides.

laser-induced CNV [2] = test: Laser-induced CNV models of rat: CNV area in flat mounts 10 days after intravitreal administration; assay type: in vivo; parameters: key to Test results, CNV area vs. DMSO, t-test: **: P < 0.01 (vs. DMSO), t-test; #: P < 0.05 (vs. Ki19003), t-test; N.S.: Not Significant (vs. DMSO), t-test; key to Test results, CNV area vs. DMSO, Dunnett's test: *: P < 0.05 (vs. DMSO), Dunnett's test; N.S.: Not Significant (vs. DMSO), Dunnett's test; #: P < 0.05; ##: P < 0.01 (vs. GW766994), Dunnett's test; key to Test results, CNV area vs. PBS, t-test: *: P < 0.05 (vs. PBS), t-test; N.S.: Not Significant (vs. PBS), t-test; CNV area, mean: unit not given here; settings: for CNV area, mean: 5 μL/eye intravitreal once, 10 days
Description: Laser-induced CNV models of rat were prepared, and neovascularization inhibitory effect was examined with respect to intravitreal administration of Composition 10 or Ki19003. BN/CrlCrlj rats (male, CHARLES RIVER LABORATORIES JAPAN, INC.) were used for the preparation of animal models. […] The retina around the optic disk was irradiated with a laser beam to induce CNV. Used for the laser beam irradiation were SCOPISOL solution for eye, Fundus 5.4 mm Laser Lens, a laser photocoagulation device and a slit lamp illumination system. Immediately after the laser beam irradiation, 5 μL/eye of the test substance was administered once into the vitreous bodies of both eyes. Immediately after the administration, one drop of an antimicrobial drug ([…] Ophthalmic Solution 0.5%) was instilled. After 10 days from the preparation, the models were euthanized with CO2. The eyeballs were extracted and immersed in 10% neutral buffered solution of formalin (room temperature, about 60 minutes). Eye cups were prepared, washed with PBS, dehydrated with methanol and immersed in PBS containing 1% bovine serum albumin and 0.5% Triton X-100 (room temperature, about 60 minutes). The retina was removed, and 60 μL of 0.5% fluorescein Griffonia simplicifolia lectin I, FITC-conjugate was added to the eye cups, and the eye cups were allowed to stand (under refrigeration, overnight). By this treatment, vascular endothelial cells of CNV were fluorescently stained with FITC-lectin. Eight slits were made radially in each of the eye cups to thereby obtain flat mounts. These flat mounts were washed twice with PBS containing 0.1% Triton X-100 and embedded on a glass slide with about 120 μL of Prolong Gold Antifade Reagent. A fluorescence image of CNV in the flat mount embedded on a glass slide was taken with a fluorescent microscope. The area of CNV was measured using an image processing software (Image pro exp). The areas of CNV in each group were analyzed by a test (t-test) for unpaired two groups. The significance level was 5% on both sides.

laser-induced CNV [3] = settings: intravitreal administration, laser-induced CNV model of mouse; cited from earlier work

5β-Cholanic Acid-Introduced CS [Compound 3]
Test results, CNV area vs. CS, t-test (laser-induced CNV [1]): N.S.
inhibitory effects of CNV, as compared to CS (laser-induced CNV [1]): did not show significant inhibitory effects of CNV
CNV area, mean (laser-induced CNV [1]): 51925

Cc1ccc(S(=O)(=O)NC(=O)N2CCC(N3CCC(Oc4ccc(Cl)c(Cl)c4)CC3)CC2)cc1 [AZD3778]
Test results, CNV area vs. DMSO, t-test (laser-induced CNV [2]; Test Example 8): N.S.
CNV area, mean (laser-induced CNV [2]; Test Example 8, Composition 35 containing 0.1 mg/mL of AZD3778, AZD3778 0.1 mg/mL in DMSO): 43935

NC(=O)c1ccc(CNC(=O)NC[C@H]2CN(Cc3ccc(Cl)c(Cl)c3)CCO2)cc1 [GW766994]
inhibitory effects of CNV, as compared to DMSO (laser-induced CNV [2]; GW766994 dissolved in DMSO, 2 mg/mL and 1.5 mg/mL (Test Examples 6 and 10), both concentrations): did not have inhibitory effects of CNV
Test results, CNV area vs. DMSO, t-test (laser-induced CNV [2]; Test Example 6): N.S.
CNV area, mean (laser-induced CNV [2]; Test Example 6, Composition 33 containing 2 mg/mL of GW766994, GW766994 2 mg/mL in DMSO): 41548
Test results, CNV area vs. DMSO, Dunnett's test (laser-induced CNV [2]; Test Example 10): N.S.
CNV area, mean (laser-induced CNV [2]; Test Example 10, Composition 6 containing 0.71, Composition 7 0.83 mg/mL of GW766994, GW766994 1.5 mg/mL in DMSO): 30795

NC(N)=NCCC[C@H](NC(=O)[C@@H]1Cc2ccccc2CN1C(=O)CCC(=O)c1ccccc1)C(=O)NCC1CCCCC1 [PS372424]
CNV area, mean (laser-induced CNV [2]; Test Example 15, Composition 38 containing 0.091 mg/mL of PS372424, PS372424 0.1 mg/mL in DMSO): 36842

Cc1ccc2c(c1)C1(CCN(CCc3nc(-c4ccccc4)oc3C)CC1)OC(=O)N2 [RS504393]
Test results, CNV area vs. DMSO, t-test (laser-induced CNV [2]; Test Example 14): N.S.
CNV area, mean (laser-induced CNV [2]; Test Example 14, Composition 37 containing 0.01 mg/mL of RS504393, RS504393 0.01 mg/mL in DMSO): 44137

O=C(Nc1ccc([N+](=O)[O-])cc1O)Nc1ccccc1Br [SB225002]
Test results, CNV area vs. DMSO, t-test (laser-induced CNV [2]; Test Example 5): N.S.
CNV area, mean (laser-induced CNV [2]; Test Example 5, Composition 31 containing 0.018, Composition 32 0.02 mg/mL of SB225002, SB225002 0.02 mg/mL in DMSO): 43121

COC(=O)[C@H](Cc1ccc([N+](=O)[O-])cc1)NC(=O)c1cccc2ccccc12 [SB328437]
CNV area, mean (laser-induced CNV [2]; Test Example 4, Compositions 14, 15, 16 containing 1.33, 1.67, 3.33 mg/mL of SB328437, SB328437 2 mg/mL in DMSO): 26040
Test results, CNV area vs. DMSO, t-test (laser-induced CNV [2]; Test Example 9): * (P < 0.05)
CNV area, mean (laser-induced CNV [2]; Test Example 9, Composition 36 containing 1 mg/mL of SB328437, SB328437 1 mg/mL in DMSO): 38911

chondroitin sulfate [CS]
CNV area, mean (laser-induced CNV [1]): 50236
Test results, CNV area vs. PBS, t-test (laser-induced CNV [2]; Test Example 18): N.S.
CNV area, mean (laser-induced CNV [2]; Test Example 18, CS (average molecular weight about 140,000) 20 mg/mL in PBS): 30462
inhibitory effects of CNV, as compared to PBS (laser-induced CNV [2]; Test Example 18, CS 20 mg/mL): did not show significant inhibitory effects of CNV

heparan sulfate
suppression of CNV (laser-induced CNV [3]): suppressed CNV

heparin
suppression of CNV (laser-induced CNV [3]): suppressed CNV
